Measurements published in publication PMC10468695, “The coenzyme B12 precursor 5,6-dimethylbenzimidazole is a flavin antagonist in Salmonella” (Microbial Cell, 2023).

Target: T1, NAD(P)H:flavin reductase (Fre) (Salmonella enterica, UniProt Q9L6L9)
T1 construct: tag-less Fre (H6 tag cleaved by rTEV)
T1 sequence (Q9L6L9 2-233): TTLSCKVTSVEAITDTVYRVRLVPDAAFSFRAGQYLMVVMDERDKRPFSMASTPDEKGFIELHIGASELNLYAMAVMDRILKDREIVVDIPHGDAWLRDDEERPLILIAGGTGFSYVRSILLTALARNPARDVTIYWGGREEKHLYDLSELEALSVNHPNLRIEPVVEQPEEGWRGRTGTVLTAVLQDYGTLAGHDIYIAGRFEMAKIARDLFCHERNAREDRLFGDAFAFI
Test: NADH oxidation assay at […] nm with purified Fre; competitive inhibition fit versus FMN
Format: biochemical

Cc1cc2nc[nH]c2cc1C [DMB, 5,6-dimethylbenzimidazole]
Ki: 1900 µM
